Experimental data as given in the supplement of paper PMC10307832.

How the values were obtained:
Assay in all cases: relative viability (nuclei count vs DMSO), 5 days (fraction); higher = more cells survive
[1] = test system: NCI-H2170
Method in brief: (§1)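 Relative viability divides the nuclei count in treated wells by that in vehicle wells. Lung cancer cell lines were seeded in 1536-well plates, dosed by pin tool the next day, and fixed and stained after 5 days in one step with final 0.05% Triton X-100, 1% formaldehyde and 1 ug/ml Hoechst. Dosing was a single drug or a fixed anchor-drug dose plus five library-drug doses (not always all listed) in √10 steps, and values are medians of duplicate plates imaged at 4×.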

[2] = test system: SK-LU-1
Method in brief: as §1

[3] = test system: UMC-11
Method in brief: as §1

[4] = test system: HCC-366
Method in brief: as §1

[5] = test system: NCI-H2342
Method in brief: as §1

[6] = test system: NCI-H2228
Method in brief: as §1

[7] = test system: NCI-H1915
Method in brief: as §1

[8] = test system: LCLC-103H
Method in brief: as §1

[9] = test system: NCI-H1734
Method in brief: as §1

[10] = test system: NCI-H23
Method in brief: as §1

[11] = test system: RERF-LC-KJ
Method in brief: as §1

[12] = test system: NCI-H1975
Method in brief: as §1

[13] = test system: NCI-H650
Method in brief: as §1

[14] = test system: SW 1573
Method in brief: as §1

[15] = test system: HCC-827
Method in brief: as §1

[16] = test system: SK-MES-1
Method in brief: as §1

[17] = test system: A-427
Method in brief: as §1

[18] = test system: LC-2-ad
Method in brief: as §1

[19] = test system: NCI-H1993
Method in brief: as §1

[20] = test system: NCI-H1355
Method in brief: as §1

[21] = test system: NCI-H2347
Method in brief: as §1

[22] = test system: NCI-H1755
Method in brief: as §1

## Cc1cn(-c2cc(NC(=O)c3ccc(C)c(Nc4nccc(-c5cccnc5)n4)c3)cc(C(F)(F)F)c2)cn1 [Nilotinib] + COc1cc2c(Oc3ccc(NC(=O)C4(C(=O)Nc5ccc(F)cc5)CC4)cc3F)ccnc2cc1OCCCN1CCOCC1 [Foretinib] (partner 0.25 µM)
[1]; first compound 0.001 µM
  relative viability: 1.03
[1]; first compound 0.003162 µM
  relative viability: 1.14
[1]; first compound 0.01 µM
  relative viability: 1.24
[1]; first compound 0.03162 µM
  relative viability: 0.995
[1]; first compound 0.1 µM
  relative viability: 1.01
[2]; first compound 0.001 µM
  relative viability: 0.745
[2]; first compound 0.003162 µM
  relative viability: 0.925
[2]; first compound 0.01 µM
  relative viability: 0.956
[2]; first compound 0.03162 µM
  relative viability: 0.691
[2]; first compound 0.1 µM
  relative viability: 0.666
[3]; first compound 0.001 µM
  relative viability: 0.896
[3]; first compound 0.003162 µM
  relative viability: 1.18
[3]; first compound 0.01 µM
  relative viability: 1.23
[3]; first compound 0.1 µM
  relative viability: 1.17
[4]; first compound 0.001 µM
  relative viability: 0.959
[4]; first compound 0.003162 µM
  relative viability: 1.08
[4]; first compound 0.01 µM
  relative viability: 1.17
[4]; first compound 0.03162 µM
  relative viability: 0.916
[4]; first compound 0.1 µM
  relative viability: 0.953
[5]; first compound 0.001 µM
  relative viability: 0.968
[5]; first compound 0.003162 µM
  relative viability: 1.1
[5]; first compound 0.03162 µM
  relative viability: 0.979
[5]; first compound 0.1 µM
  relative viability: 1
[6]; first compound 0.003162 µM
  relative viability: 0.99
[6]; first compound 0.01 µM
  relative viability: 1.06
[6]; first compound 0.03162 µM
  relative viability: 0.549
[6]; first compound 0.1 µM
  relative viability: 0.8
[7]; first compound 0.001 µM
  relative viability: 0.966
[7]; first compound 0.003162 µM
  relative viability: 1.21
[7]; first compound 0.01 µM
  relative viability: 1.2
[7]; first compound 0.03162 µM
  relative viability: 0.983
[7]; first compound 0.1 µM
  relative viability: 0.952
[8]; first compound 0.001 µM
  relative viability: 0.737
[8]; first compound 0.003162 µM
  relative viability: 0.86
[8]; first compound 0.01 µM
  relative viability: 0.837
[8]; first compound 0.03162 µM
  relative viability: 0.581
[8]; first compound 0.1 µM
  relative viability: 0.67
[9]; first compound 0.001 µM
  relative viability: 0.771
[9]; first compound 0.01 µM
  relative viability: 0.895
[9]; first compound 0.03162 µM
  relative viability: 0.646
[9]; first compound 0.1 µM
  relative viability: 0.628
[10]; first compound 0.001 µM
  relative viability: 1.06
[10]; first compound 0.003162 µM
  relative viability: 1.13
[10]; first compound 0.01 µM
  relative viability: 1.02
[10]; first compound 0.03162 µM
  relative viability: 0.79
[10]; first compound 0.1 µM
  relative viability: 0.658
[11]; first compound 0.001 µM
  relative viability: 0.967
[11]; first compound 0.003162 µM
  relative viability: 1.08
[11]; first compound 0.01 µM
  relative viability: 0.924
[11]; first compound 0.03162 µM
  relative viability: 0.81
[11]; first compound 0.1 µM
  relative viability: 0.912
[12]; first compound 0.001 µM
  relative viability: 0.956
[12]; first compound 0.003162 µM
  relative viability: 1.12
[12]; first compound 0.01 µM
  relative viability: 1.02
[12]; first compound 0.03162 µM
  relative viability: 0.74
[12]; first compound 0.1 µM
  relative viability: 0.957
[13]; first compound 0.001 µM
  relative viability: 0.982
[13]; first compound 0.003162 µM
  relative viability: 0.999
[13]; first compound 0.03162 µM
  relative viability: 0.986
[13]; first compound 0.1 µM
  relative viability: 1
[14]; first compound 0.001 µM
  relative viability: 0.949
[14]; first compound 0.003162 µM
  relative viability: 1.14
[14]; first compound 0.01 µM
  relative viability: 1.14
[14]; first compound 0.03162 µM
  relative viability: 0.753
[14]; first compound 0.1 µM
  relative viability: 0.808
[15]; first compound 0.003162 µM
  relative viability: 1.13
[15]; first compound 0.01 µM
  relative viability: 1.06
[15]; first compound 0.03162 µM
  relative viability: 0.939
[15]; first compound 0.1 µM
  relative viability: 0.938
[16]; first compound 0.003162 µM
  relative viability: 1.13
[16]; first compound 0.01 µM
  relative viability: 1.23
[16]; first compound 0.03162 µM
  relative viability: 0.904
[16]; first compound 0.1 µM
  relative viability: 0.963
[17]; first compound 0.001 µM
  relative viability: 0.945
[17]; first compound 0.003162 µM
  relative viability: 1.09
[17]; first compound 0.01 µM
  relative viability: 1.03
[17]; first compound 0.03162 µM
  relative viability: 0.792
[17]; first compound 0.1 µM
  relative viability: 0.476
[18]; first compound 0.001 µM
  relative viability: 0.912
[18]; first compound 0.003162 µM
  relative viability: 1.08
[18]; first compound 0.01 µM
  relative viability: 0.963
[18]; first compound 0.03162 µM
  relative viability: 0.827
[18]; first compound 0.1 µM
  relative viability: 0.804
[19]; first compound 0.001 µM
  relative viability: 0.823
[19]; first compound 0.003162 µM
  relative viability: 0.871
[19]; first compound 0.01 µM
  relative viability: 0.989
[19]; first compound 0.03162 µM
  relative viability: 0.742
[19]; first compound 0.1 µM
  relative viability: 0.839
[20]; first compound 0.001 µM
  relative viability: 0.907
[20]; first compound 0.003162 µM
  relative viability: 1.19
[20]; first compound 0.01 µM
  relative viability: 1.25
[20]; first compound 0.03162 µM
  relative viability: 0.893
[20]; first compound 0.1 µM
  relative viability: 0.992
[21]; first compound 0.001 µM
  relative viability: 1.14
[21]; first compound 0.003162 µM
  relative viability: 0.65
[21]; first compound 0.01 µM
  relative viability: 0.6
[21]; first compound 0.03162 µM
  relative viability: 0.77
[21]; first compound 0.1 µM
  relative viability: 0.501
[22]; first compound 0.001 µM
  relative viability: 0.892
[22]; first compound 0.003162 µM
  relative viability: 0.968
[22]; first compound 0.01 µM
  relative viability: 0.974
[22]; first compound 0.03162 µM
  relative viability: 0.983
[22]; first compound 0.1 µM
  relative viability: 0.843
